{"source": "ChEMBL document CHEMBL3714729", "about": "“Heterocyclic compounds for the inhibition of pask” (2012)", "data": [{"biological_target": "PAS domain-containing serine/threonine-protein kinase (Homo sapiens, UniProt Q96RG2)", "sequence (Q96RG2 whole entry, the tested form may be a part)": "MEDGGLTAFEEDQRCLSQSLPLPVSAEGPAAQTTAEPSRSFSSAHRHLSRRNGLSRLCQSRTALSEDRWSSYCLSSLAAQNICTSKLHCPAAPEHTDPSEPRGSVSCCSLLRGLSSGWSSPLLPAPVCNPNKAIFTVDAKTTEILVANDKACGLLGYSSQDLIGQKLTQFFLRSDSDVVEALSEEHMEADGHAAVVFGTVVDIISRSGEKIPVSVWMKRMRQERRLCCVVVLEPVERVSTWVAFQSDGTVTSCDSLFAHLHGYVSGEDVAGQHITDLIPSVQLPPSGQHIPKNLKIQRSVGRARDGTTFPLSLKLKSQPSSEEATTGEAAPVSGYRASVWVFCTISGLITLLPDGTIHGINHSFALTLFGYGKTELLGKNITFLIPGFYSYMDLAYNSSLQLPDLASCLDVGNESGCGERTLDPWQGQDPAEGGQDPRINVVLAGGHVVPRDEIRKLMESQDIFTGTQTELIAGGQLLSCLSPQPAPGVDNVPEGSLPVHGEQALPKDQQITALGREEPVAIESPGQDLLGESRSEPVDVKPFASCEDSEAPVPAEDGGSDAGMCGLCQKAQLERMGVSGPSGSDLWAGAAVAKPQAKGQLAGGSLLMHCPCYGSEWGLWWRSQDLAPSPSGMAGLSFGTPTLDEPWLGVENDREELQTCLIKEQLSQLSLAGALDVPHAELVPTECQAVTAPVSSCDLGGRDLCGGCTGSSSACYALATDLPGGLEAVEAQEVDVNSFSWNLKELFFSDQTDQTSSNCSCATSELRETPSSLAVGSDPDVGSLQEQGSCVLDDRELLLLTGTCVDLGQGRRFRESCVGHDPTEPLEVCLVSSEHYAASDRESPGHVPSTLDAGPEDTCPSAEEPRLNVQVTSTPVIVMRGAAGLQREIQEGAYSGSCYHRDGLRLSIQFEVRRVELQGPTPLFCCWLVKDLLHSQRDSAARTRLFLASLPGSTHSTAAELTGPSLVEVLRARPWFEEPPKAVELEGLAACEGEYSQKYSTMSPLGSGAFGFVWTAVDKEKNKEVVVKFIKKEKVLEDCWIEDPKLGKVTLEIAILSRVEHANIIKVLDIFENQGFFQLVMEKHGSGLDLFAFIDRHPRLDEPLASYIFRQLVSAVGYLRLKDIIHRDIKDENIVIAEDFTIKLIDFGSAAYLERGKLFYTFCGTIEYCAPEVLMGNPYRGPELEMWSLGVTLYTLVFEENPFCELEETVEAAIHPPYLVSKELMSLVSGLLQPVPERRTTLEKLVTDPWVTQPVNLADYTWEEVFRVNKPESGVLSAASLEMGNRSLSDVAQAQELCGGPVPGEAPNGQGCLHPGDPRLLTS", "assay": "Inhibition of human recombinant PASK using Ulight-peptide substrate incubated for 2 hrs by TR-FRET assay", "units": {"IC50": "µM"}, "values": [{"compound": "O=c1cc(-c2ccc3c(c2)OCCO3)[nH]c2c(-c3cccnc3)c(O)nn12", "IC50": "≤ 10"}, {"compound": "O=c1cc(-c2ccccc2)[nH]c2c(-c3cccnc3)c(O)nn12", "IC50": "≤ 10"}, {"compound": "Nc1nn2c(=O)cc(-c3ccc4occc4c3)[nH]c2c1-c1ccccn1", "IC50": "≤ 10"}, {"compound": "Cc1nn2c(=O)cc(-c3ccc(O)cc3)[nH]c2c1-c1ccccc1", "IC50": "≤ 10"}, {"compound": "O=c1cc(-c2ccc3c(c2)OCCO3)[nH]c2c(-c3ccc(Br)cc3)cnn12", "IC50": "≤ 10"}, {"compound": "COc1ccc(-c2c(C)nn3c(=O)cc(-c4ccc5c(c4)OCCO5)[nH]c23)cc1", "IC50": "≤ 10"}, {"compound": "O=c1cc(-c2ccc3c(c2)OCCO3)[nH]c2c(-c3ccc(F)cc3)cnn12", "IC50": "≤ 10"}, {"compound": "Nc1nn2c(=O)cc(-c3ccc(F)cc3F)[nH]c2c1-c1ccccn1", "IC50": "≤ 10"}, {"compound": "COc1nn2c(=O)cc(-c3ccc4c(c3)OCO4)[nH]c2c1-c1ccccn1", "IC50": "≤ 10"}, {"compound": "O=C(O)c1cnn2c(=O)cc(-c3ccc4c(c3)OCCO4)[nH]c12", "IC50": "≤ 10"}, {"compound": "CCCc1cnn2c(=O)cc(-c3ccc4c(c3)OCO4)[nH]c12", "IC50": "≤ 10"}, {"compound": "COc1ccc(-c2c(C)nn3c(=O)cc(-c4ccc5ncccc5c4)[nH]c23)cc1", "IC50": "≤ 10"}, {"compound": "COc1ccc(-c2cnn3c(=O)cc(-c4ccc5c(c4)OCCO5)[nH]c23)cc1", "IC50": "≤ 10"}, {"compound": "O=c1cc(-c2ccc3c(c2)OCCO3)[nH]c2c(-c3ccc(N4CCOCC4)nc3)cnn12", "IC50": "≤ 10"}, {"compound": "Nc1nn2c(=O)cc(-c3cc4ccccc4o3)[nH]c2c1-c1ccccn1", "IC50": "≤ 10"}, {"compound": "O=C(c1cnn2c(=O)cc(-c3ccc4c(c3)OCCO4)[nH]c12)N1CCCC1", "IC50": "≤ 10"}, {"compound": "Cc1cc2cc(-c3cc(=O)n4ncc(-c5ccccn5)c4[nH]3)ccc2o1", "IC50": "≤ 10"}, {"compound": "O=c1cc(-c2ccc(Cl)cc2)[nH]c2c(Cc3ccccc3)cnn12", "IC50": "≤ 10"}, {"compound": "Cc1ccc(-c2cc(=O)n3ncc(-c4ccccn4)c3[nH]2)cc1", "IC50": "≤ 10"}, {"compound": "Nc1nn2c(=O)cc(-c3ccc(Cl)c(Cl)c3)[nH]c2c1-c1ccccn1", "IC50": "≤ 10"}, {"compound": "N#Cc1c(O)nn2c(=O)cc(-c3ccc(Cl)cc3)[nH]c12", "IC50": "≤ 10"}, {"compound": "O=c1cc(-c2ccc(Cl)cc2Cl)[nH]c2c(-c3ccccn3)cnn12", "IC50": "≤ 10"}, {"compound": "COc1nn2c(=O)cc(-c3ccc(Cl)cc3)[nH]c2c1C#N", "IC50": "≤ 10"}, {"compound": "O=c1cc(-c2ccc(C(F)(F)F)cc2)[nH]c2c(-c3ccccn3)cnn12", "IC50": "≤ 10"}, {"compound": "O=c1cc(-c2cccc(F)c2)[nH]c2c(-c3ccccn3)cnn12", "IC50": "≤ 10"}, {"compound": "O=c1cc(-c2ccc(F)cc2F)[nH]c2c(-c3ccccn3)cnn12", "IC50": "≤ 10"}, {"compound": "Cc1nn2c(=O)cc(-c3ccc4ncccc4c3)[nH]c2c1-c1ccc(F)cc1", "IC50": "≤ 10"}, {"compound": "Cc1cc2cc(-c3cc(=O)n4nc(N)c(-c5ccccn5)c4[nH]3)ccc2o1", "IC50": "≤ 10"}, {"compound": "Nc1nn2c(c1-c1ccccn1)CC(c1ccc3c(c1)OC(F)(F)O3)=CC2=O", "IC50": "≤ 10"}, {"compound": "O=c1cc(-c2ccccc2)[nH]c2c(-c3ccc(O)nc3)cnn12", "IC50": "≤ 10"}, {"compound": "COc1cc(Cl)ccc1-c1cc(=O)n2ncc(-c3ccccn3)c2[nH]1", "IC50": "≤ 10"}, {"compound": "O=c1cc(-c2ccc3c(c2)OCCO3)[nH]c2c(-c3cccc(Cl)c3)cnn12", "IC50": "≤ 10"}, {"compound": "CCCNC(=O)c1c(N)nn2c(=O)cc(-c3ccc4c(c3)OCO4)[nH]c12", "IC50": "≤ 10"}, {"compound": "CS(=O)(=O)c1ccc(-c2cc(=O)n3ncc(-c4ccccn4)c3[nH]2)cc1", "IC50": "≤ 10"}, {"compound": "Nc1nn2c(=O)cc(-c3cccc(F)c3)[nH]c2c1-c1ccccn1", "IC50": "≤ 10"}, {"compound": "Nc1nn2c(=O)cc(-c3ccc(C(F)(F)F)cc3)[nH]c2c1-c1ccccn1", "IC50": "≤ 10"}, {"compound": "COc1cc(OC)cc(-c2cc(=O)n3ncc(-c4ccccn4)c3[nH]2)c1", "IC50": "≤ 10"}, {"compound": "Cc1coc2ccc(-c3cc(=O)n4nc(N)c(-c5ccccn5)c4[nH]3)cc12", "IC50": "≤ 10"}, {"compound": "Cc1nn2c(=O)cc(-c3ccc4[nH]ccc4c3)[nH]c2c1-c1ccccc1", "IC50": "≤ 10"}, {"compound": "COc1ccc(-c2cnn3c(=O)cc(-c4ccccc4)[nH]c23)cn1", "IC50": "≤ 10"}, {"compound": "O=c1cc(-c2ccccc2)[nH]c2c(-c3ccc(N4CCCCC4)nc3)cnn12", "IC50": "≥ 10"}, {"compound": "O=c1cc(-c2ccc(Cl)cc2F)[nH]c2c(-c3ccccn3)cnn12", "IC50": "≤ 10"}]}]}
